TGI and GI50 data for 5 compounds are collected here from PubChem BioAssay (NCI).

Some test systems named below: MDA-MB-435; SR leukemia; OVCAR-4 ovarian; OVCAR-5 ovarian; RXF 393 renal; NCI-H522 lung; EKVX NSCLC; ACHN renal.
What all share (assay): growth of human tumour cells (NCI), 48 h

Each structure is given as a SMILES string.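 Step 1: Grow cells in 96-well plates. Step 2: Expose to compound for 48 hours at 5 concentrations. Step 3: Interpolate endpoints linearly; if unreached, use highest concentration. GI50 marks 50% less growth. The concentration for full growth arrest is given as TGI.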 Where a SMILES comes first, the peptide text is derived from it. Bridges are numbered along the chain shown (N, C = ends). Roman numbers before positions name the chains, in order. [ ]: non-standard residue; d: D form. The star is where a group is joined. Heptadecanoyl = CCCCCCCCCCCCCCCCC(=O)*; Phg = N[CH](C(=O)O)c1ccccc1

Regarding `Nc1nc(Cl)nc2c1ncn2C1CCC(CO)O1` (stereo not drawn), the TGI in the test with MDA-MB-435, with SR leukemia, in the test with OVCAR-4 ovarian, in the test on OVCAR-5 ovarian and in the test with RXF 393 renal was more than 100 µM throughout.

On to `CN(C)C(=S)SCc1ccccc1`, for which the TGI with MDA-MB-435, in the test with OVCAR-5 ovarian, with NCI-H522 lung, in the test with EKVX NSCLC and in the test on RXF 393 renal was more than 100 µM throughout.

With `Cc1cccc(C(O)c2ccccn2)c1O` (stereo not drawn), the TGI in the test on ACHN renal, with MDA-MB-435, in the test on SR leukemia, in the test with OVCAR-5 ovarian, with NCI-H522 lung and in the test on EKVX NSCLC was more than 100 µM each time. The same compound gave a TGI in the test on RXF 393 renal of more than 100 µM.

For the compound `N#CC(C#N)=Cc1ccc(-c2ccc(-c3nc4ccccc4s3)cc2)s1`, the GI50 in the test on ACHN renal is 13.4 µM; in the test on MDA-MB-435, 25.5 µM; in the test with OVCAR-4 ovarian it was 51.9 µM; in the test on OVCAR-5 ovarian, 14 µM; with NCI-H522 lung it was 19.4 µM; in the test on EKVX NSCLC it was 29.6 µM. Further, the GI50 with RXF 393 renal was 40.5 µM. Besides, the TGI was 27.3 µM with ACHN renal; 64.5 µM with MDA-MB-435; more than 100 µM with OVCAR-4 ovarian; 30.5 µM in the test on OVCAR-5 ovarian; 54 µM with NCI-H522 lung; more than 100 µM with EKVX NSCLC. In the test on RXF 393 renal, the TGI was more than 100 µM.

As for `CCCCCCCCCCCCCCCCC(=O)N1CCCC1C(=O)NCC(=O)NC(C(=O)N1CCCC1C(=O)NC(CO)C(=O)NC(Cc1ccc(O)cc1)C(=O)NC(CCCCNC(=O)C1CCCN1C(=O)C(CCCCN)NC(=O)C(CCCCN)NC(=O)C(CCCCN)NC(=O)C(CCCNC(=N)N)NC(=O)C(CCCCN)NC(=O)C(N)C(C)C)C(=O)NC(CC(C)C)C(=O)NC(CCCNC(=N)N)C(=O)N1CCCC1C(=O)NCC(N)=O)c1ccccc1` (stereo not drawn) (I: Heptadecanoyl-PG[Phg]PSYKLRPG-NH2 / II: H-VKRKKKP; amide I:7-II:C; configuration not given here), the GI50 is 18.9 µM in the test on MDA-MB-435; 46.9 µM in the test on OVCAR-4 ovarian; 34.3 µM with OVCAR-5 ovarian; 25.5 µM in the test with NCI-H522 lung; 27.7 µM in the test with EKVX NSCLC; 36.8 µM with RXF 393 renal. The TGI with MDA-MB-435 is 83.9 µM; in the test with OVCAR-4 ovarian, more than 100 µM; in the test on OVCAR-5 ovarian, more than 100 µM; in the test on NCI-H522 lung, 85.9 µM; in the test on EKVX NSCLC, 84.4 µM; in the test on RXF 393 renal it was more than 100 µM.
